target: T1, human 5-HT6 (Homo sapiens, UniProt P50406); experiment: cAMP agonist and antagonist mode at 5-HT6 (HTRF, 1321N1 cells); type: cell-based; conditions: reference agonist, used in antagonist mode
T1 construct: expressed in transfected cells
Method: For assessment of 5-HT6 activity, 1321N1 cells stably expressing human 5-HT6 were grown to ˜90% confluence in a humidified atmosphere at 37° C. with 5% CO2 in F12 nutrient mixture (Ham) containing 10% dialyzed FBS, 400 µg/ml G418, 100 U/ml penicillin, and 100 µg/ml streptomycin. Medium was removed by aspiration, cells were washed 1× with PBS, and dissociated using PBS-EDTA for […] at room temperature. Cells were then diluted with PBS and pelleted by centrifugation for […] at 1000 rpm. Cells were suspended in assay buffer containing 3000 µM Ro-20-1724 (Sigma, St. Louis, Mo.), a phosphodiesterase inhibitor. Cells were seeded using a microplate dispenser at a density of 3,750 cells/well in a volume of 5 µl onto 384 well white wall/opaque bottom, small volume plates (Greiner Bio One, Monroe, N.C.).
Compound plates for cAMP assays were prepared at 8 mM in 100% DMSO and diluted in assay buffer to the appropriate test concentrations. The final in-well concentration of DMSO was 0.5%. Compounds were tested in duplicate wells using a range of twelve concentrations. […]
Homogeneous time-resolved fluorescence (HTRF) (cAMP dynamic 2 kit; Cisbio, Bedford, Mass.) was used to measure the formation of 3′,5′-cyclic adenosine monophosphate (cAMP) per the manufacturer's instructions. HTRF signal was measured at 620 and 665 nm using an EnVision Multilabel Plate Reader (PerkinElmer). […]

T1 sequence (P50406 whole entry): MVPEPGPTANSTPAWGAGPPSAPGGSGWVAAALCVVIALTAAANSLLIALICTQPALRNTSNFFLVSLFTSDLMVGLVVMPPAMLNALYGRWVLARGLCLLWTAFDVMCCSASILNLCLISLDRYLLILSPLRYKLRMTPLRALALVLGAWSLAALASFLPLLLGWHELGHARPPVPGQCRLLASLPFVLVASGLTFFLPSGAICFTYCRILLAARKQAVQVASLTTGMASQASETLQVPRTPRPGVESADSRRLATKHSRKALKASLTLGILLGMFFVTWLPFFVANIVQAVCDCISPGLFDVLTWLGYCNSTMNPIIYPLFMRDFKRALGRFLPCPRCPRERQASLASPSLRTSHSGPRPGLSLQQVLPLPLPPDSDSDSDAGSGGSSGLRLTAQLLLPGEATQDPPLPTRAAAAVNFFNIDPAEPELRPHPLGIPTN

Row | Compound | EC80 of 5-HT [nM]
1 | NCCc1c[nH]c2ccc(O)cc12 [5-HT, 5-hydroxytryptamine] | 15

target: human 5-HT2C(VSV) (Homo sapiens, UniProt P28335, I156V/I160V/N158S); experiment: cell-based; conditions: not given
Sequence (P28335 33-458 I156V/N158S/I160V limits assumed): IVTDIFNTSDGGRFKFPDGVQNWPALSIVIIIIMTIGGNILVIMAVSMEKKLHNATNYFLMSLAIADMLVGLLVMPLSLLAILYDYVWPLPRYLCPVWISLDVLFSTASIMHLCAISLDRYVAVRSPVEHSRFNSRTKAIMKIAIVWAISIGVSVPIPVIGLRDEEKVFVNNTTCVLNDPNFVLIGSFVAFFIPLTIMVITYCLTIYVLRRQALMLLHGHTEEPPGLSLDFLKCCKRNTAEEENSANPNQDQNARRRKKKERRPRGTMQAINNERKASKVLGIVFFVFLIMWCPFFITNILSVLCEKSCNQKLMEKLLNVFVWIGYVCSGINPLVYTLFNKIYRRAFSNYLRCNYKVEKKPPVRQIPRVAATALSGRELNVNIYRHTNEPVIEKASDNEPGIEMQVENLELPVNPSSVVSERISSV

Row | Compound | EC50 [nM]
2 | CCOc1c(F)ccc2c1c(CCNC1Cc3ccccc3C1)cn2C [30-16, N-(2-(4-ethoxy-5-fluoro-1-methyl-1H-indol-3-yl)ethyl)-2,3-dihydro-1H-inden-2-amine] | 1 to 500
3 | COc1ccc(S(=O)(=O)c2ccccc2)c2c1c(CCN(C)C)cn2C [25-1, 2-(4-methoxy-1-methyl-7-(phenylsulfonyl)-1H-indol-3-yl)-N,N-dimethylethanamine] | 1 to 500
4 | CNCCc1cn(C)c2c(F)cc(-c3ccccc3)c(OC)c12 [22-5, 2-(7-fluoro-4-methoxy-1-methyl-5-phenyl-1H-indol-3-yl)-N-methylethanamine] | 1 to 500
5 | CCn1cc(CCNCC(C)c2ccccc2)c2c(O)cc(F)cc21 (stereo not drawn) [39-6, 1-ethyl-6-fluoro-3-(2-(2-phenylpropylamino)ethyl)-1H-indol-4-ol] | 1 to 500
6 | COc1cc(F)cc2c1c(CCN(C)C)cn2S(=O)(=O)c1ccccc1 [15-2, 2-(6-fluoro-4-methoxy-1-(phenylsulfonyl)-1H-indol-3-yl)-N,N-dimethylethan amine] | 500 to 10000
7 | CNCCc1cn(C)c2ccc(F)c(OCc3cccc4cccnc34)c12 [33-13, 2-(5-fluoro-1-methyl-4-(quinolin-8-ylmethoxy)-1H-indol-3-yl)-N-methylethanamine] | 1 to 500
8 | CCn1cc(CCN(C)C)c2c(OCc3cc(F)ccc3C)cc(F)cc21 [1-17b, 2-(1-ethyl-6-fluoro-4-(5-fluoro-2-methylbenzyloxy)-1H-indol-3-yl)-N,N-dimethylethanamine] | 1 to 500
9 | CCCn1cc(CCNC)c2c(OCc3ccc(F)cc3)c(F)ccc21 [33-15, 2-(5-fluoro-4-(4-fluorobenzyloxy)-1-propyl-1H-indol-3-yl)-N-methylethanamine] | 1 to 500
10 | COc1c(F)ccc2c1c(CCNCCCCc1ccccc1)cn2C [17-13, N-(2-(5-fluoro-4-methoxy-1-methyl-1H-indol-3-yl)ethyl)-4-phenylbutan-1-amine] | 1 to 500
11 | COc1c(F)ccc2c1c(CCN1CCN(c3ccccc3)CC1)cn2C [17-14, 5-fluoro-4-methoxy-1-methyl-3-(2-(4-phenylpiperazin-1-yl)ethyl)-1H-indole] | 500 to 10000
12 | CN(C)CCc1cn(Cc2ccc3ccccc3c2)c2c(F)ccc(OCc3ccccc3)c12 [7-6, 2-(4-(benzyloxy)-7-fluoro-1-(naphthalen-2-ylmethyl)-1H-indol-3-yl)-N,N-dimethylethanamine] | 1 to 500
13 | CCn1cc(CCNCc2ccccc2Cl)c2c(OC)ccc(F)c21 [20-10, N-(2-chlorobenzyl)-2-(1-ethyl-7-fluoro-4-methoxy-1H-indol-3-yl)ethanamine] | 1 to 500
14 | CCOc1c(F)ccc2c1c(CCNCCc1ccccc1)cn2C [30-25, 2-(4-ethoxy-5-fluoro-1-methyl-1H-indol-3-yl)-N-phenethylethanamine] | 1 to 500
15 | COc1c(F)ccc2c1c(CCNC(C)c1ccccc1)cn2C (stereo not drawn) [34-10, 2-(5-fluoro-4-methoxy-1-methyl-1H-indol-3-yl)-N-(1-phenylethyl)ethanamine] | 1 to 500
16 | COC(=O)/C=C/c1ccc(OC)c2c(CCN(C)C)cn(C)c12 [25-2, (E)-methyl 3-(3-(2-(dimethylamino)ethyl)-4-methoxy-1-methyl-1H-indol-7-yl)acrylate] | 1 to 500
17 | CCn1cc(CCN(C)CCc2cn(CC)c3cc(F)cc(OC)c23)c2c(OC)cc(F)cc21 [39-5, 2-(1-ethyl-6-fluoro-4-methoxy-1H-indol-3-yl)-N-(2-(1-ethyl-6-fluoro-4-methoxy-1H-indol-3-yl)ethyl)-N-methylethanamine] | 1 to 500
18 | CCn1cc(CCN(C)C)c2c(OCc3ccncc3)cc(F)cc21 [1-18b, 2-(1-ethyl-6-fluoro-4-(pyridin-4-ylmethoxy)-1H-indol-3-yl)-N,N-dimethylethanamine] | 500 to 10000
19 | COc1ccc(F)c2c1c(CCN1CCCC1)cn2C [11-10, 7-fluoro-4-methoxy-1-methyl-3-(2-(pyrrolidin-1-yl)ethyl)-1H-indole] | 1 to 500
20 | CNCCc1cn(C)c2ccc(F)c(OCCc3ccccc3C)c12 [33-17, 2-(5-fluoro-1-methyl-4-(2-methylphenethoxy)-1H-indol-3-yl)-N-methylethanamine] | 1 to 500
21 | CNCCc1cn(C)c2ccc(F)c(OCc3ccc(Cl)cc3)c12 [33-20, 2-(4-(4-chlorobenzyloxy)-5-fluoro-1-methyl-1H-indol-3-yl)-N-methylethanamine] | 1 to 500
22 | CCn1cc(CCNCCOC)c2c(O)cc(F)cc21 [11-11, 1-ethyl-6-fluoro-3-(2-(2-methoxyethylamino)ethyl)-1H-inol-4-ol] | 1 to 500
23 | CCn1cc(CCN(C)C)c2c(Oc3ccccc3N)ccc(F)c21 [2-3, 2-(3-(2-(dimethylamino)ethyl)-1-ethyl-7-fluoro-1H-indol-4-yloxy)aniline] | 1 to 500
24 | NCCc1cn(CCOc2ccccc2)c2ccc(F)c(O)c12 [19-4, 3-(2-aminoethyl)-5-fluoro-1-(2-phenoxyethyl)-1H-indol-4-ol] | 1 to 500
25 | CNCCc1cn(C)c2c(F)cc(CCc3ccccc3)c(OC)c12 [23-4, 2-(7-fluoro-4-methoxy-1-methyl-5-phenethyl-1H-indol-3-yl)-N-methylethanamine] | 500 to 10000
26 | CCOc1c(F)ccc2c1c(CCNCc1ccccc1)cn2C [30-15, N-benzyl-2-(4-ethoxy-5-fluoro-1-methyl-1H-indol-3-yl)ethanamine] | 1 to 500
27 | CNCCc1cn(C)c2ccc(F)c(OCCc3ccc(OC)cc3)c12 [33-25, 2-(5-fluoro-4-(4-methoxyphenethoxy)-1-methyl-1H-indol-3-yl)-N-methylethanamine] | 1 to 500
28 | CCn1cc(CCNCc2cccc(C(F)(F)F)c2)c2c(O)cc(F)cc21 [31-12, 1-ethyl-6-fluoro-3-(2-(3-(trifluoromethyl)benzylamino)ethyl)-1H-indol-4-ol] | 1 to 500
29 | CCn1cc(CCN2C[C@@H]3C[C@H]2CN3Cc2ccccc2)c2c(O)cc(F)cc21 [31-7, 3-(2-((1S,4S)-5-benzyl-2,5-diazabicyclo[2.2.1]heptan-2-yl)ethyl)-1-ethyl-6-fluoro-1H-indol-4-ol] | 500 to 10000
30 | CNCCc1cn(C)c2ccc(F)c(OCc3ccccc3F)c12 [33-24, 2-(5-fluoro-4-(2-fluorobenzyloxy)-1-methyl-1H-indol-3-yl)-N-methylethanamine] | 1 to 500

Source: patent publication US8912220B2 (priority 2009, dated 2014)
